The data set is described as follows: Amount of compound an AA-1 polymer formulation can hold. It is filed as physicochemical. To be noted: by weight. The text has this: The formulations may be made by mixing the N-halogenated or N,N-dihalogenated amine compound with the polymer using water. Water/oil emulsions, hydrating agents, wetting agents, surfactants, and the like may also be used. Concentrations of N-halogenated or N,N-dihalogenated amine compound may range from about 0.01% to about 5.0% (by weight). Concentrations of polymer may be from about 0.01% to about 10% (by weight) in water. For example, in certain implementations, the concentration of N-halogenated or N,N-dihalogenated compounds may range from about 0.1% to about 2.0% (by weight). Higher concentrations of polymer may be required to formulate higher concentrations of the N-halogenated or N,N-dihalogenated amine compound. For example, a 1% AA-1 formulation can hold up to about 2% N,N-dichloro-2,2-dimethyltaurine, whereas a 2% AA-1 formulation can hold up to about 3.5% of the same compound. These ratios may differ as different polymers and N-halogenated or N,N-dihalogenated amine compound are combined in a given formulation.

Regarding `CC(C)(CS(=O)(=O)O)N(Cl)Cl` [NVC-422, N,N-dichloro-2,2-dimethyltaurine], the “amount of compound the formulation can hold” value is, setting by setting: (1% AA-1 formulation) “about 2%”; (2% AA-1 formulation) “about 3.5%”.

The values above are taken from patent US20140227201A1, “Antimicrobial Gel Formulations” (NovaBay Pharmaceuticals, Inc., priority 2013, published 2014).
